Laboratory results published in US20200299791A1, “Process for the Production of a Saccharide Product from an Aqueous Solution” (Avantium Knowledge Centre B.V., priority 2015, published 2020).

Columns and labels:
[1] = Partition of model by-product compounds between Carrier liquid 1 (paraffin oil) and organic solvent; format: physicochemical; details: log {[compound]carrier liquid/[compound]organic solvent}, 2 mL solvent + 3 mL carrier liquid solution, shaken 60 min at room temperature
Procedure: (§1) Six compounds were dissolved in two different carrier liquids. The six compounds were exemplary for the by-products that may be obtained when wood is subjected to hydrolysis by the reaction of concentrated hydrochloric acid and that may be obtained when the hydrolyzate thus obtained in treated with the carrier liquid. The compounds were • a) betulin, a triterpene having a pentacyclic structure and two hydroxyl groups, • b) abietic acid, i.e. a diterpene compound derived from four isoprene units and a having one carboxylic acid group, • c) linoleic acid, a fatty aid having 18 carbon atoms and two unsaturated bonds, • d) 1-eicosanol, a linear alkanol having 20 carbon atoms, • e) sitosterol, a phytosterol with a chemical structure similar to cholesterol, and • f) limonene, a cyclic terpene having two unsaturated bonds.
Carrier liquid 1 is a paraffin oil with a boiling range of 388 to 709° C. and a kinematic viscosity of 481 mm^2/s at 40° C. and a kinematic viscosity of about 31 at 100° C. (ASTM D445). Carrier liquid 1 is immiscible with water.
(§2) In each experiment, 2 mL of an organic solvent was added to 3 mL of the carrier liquid solutions. The admixture obtained were shaken for 60 min at room temperature. The concentration of each compound in each of the carrier liquids was determined and the partition coefficient was calculated. By partition coefficient P is understood the ratio of concentrations of each of the compounds in an organic solvent and in a carrier liquid. The partition coefficient is expressed as
(§3) log P, being log {[compound]carrier liquid/[compound]organic solvent}.
(§4) The partition coefficients are shown in Table 2 for Carrier liquid 1 and in Table 3 for Carrier liquid 2.

[2] = Partition of model by-product compounds between Carrier liquid 2 (poly-alpha-olefin) and organic solvent; format: physicochemical; details: log {[compound]carrier liquid/[compound]organic solvent}, 2 mL solvent + 3 mL carrier liquid solution, shaken 60 min at room temperature
Procedure: as §1
Carrier liquid 2 is a poly-alpha-olefin having a kinematic viscosity of 1240 mm^2/s at 40° C. and a kinematic viscosity of 100 mm^2/s at 100° C. (ASTM D445). It has a flash point of 283° C. (ASTM D92). Carrier liquid 2 is immiscible with water.
as §2, §3, §4

| Compound | Partition coefficient with Carrier liquid 1, Log P ([1]; Exp. No. 1, solvent methanol) | Partition coefficient with Carrier liquid 1, Log P ([1]; Exp. No. 2, solvent butanol) | Partition coefficient with Carrier liquid 1, Log P ([1]; Exp. No. 3, solvent acetone) | Partition coefficient with Carrier liquid 2, Log P ([2]; Exp. No. 4, solvent methanol) | Partition coefficient with Carrier liquid 2, Log P ([2]; Exp. No. 5, solvent butanol) | Partition coefficient with Carrier liquid 2, Log P ([2]; Exp. No. 6, solvent acetone) |
| --- | --- | --- | --- | --- | --- | --- |
| CC[C@H](CC[C@@H](C)[C@H]1CC[C@H]2[C@@H]3CC=C4C[C@@H](O)CC[C@]4(C)[C@H]3CC[C@]12C)C(C)C [sitosterol] | 0.35 | −0.45 | 0.16 | −0.05 | −0.63 | −0.10 |
| C=C(C)[C@@H]1CC[C@]2(CO)CC[C@]3(C)[C@H](CC[C@@H]4[C@@]5(C)CC[C@H](O)C(C)(C)[C@@H]5CC[C@]43C)[C@@H]12 [betulin] | – | – | – | −0.36 | −1.09 | −1.03 |
